ChEMBL document CHEMBL5335800, “Focused Screening Identifies Different Sensitivities of Human TET Oxygenases to the Oncometabolite 2-Hydroxyglutarate” (J Med Chem, 2024)
The source made the active and inactive calls. The calls are words filed in the database; no cut-off is given here.

Columns and labels:
U2OS [1] = assay type: toxicity, cell-based; conditions: human
U2OS [2] = assay type: toxicity, cell-based; conditions: human; remark: listed apart in the source
[3] = molecular target: T1, Methylcytosine dioxygenase TET1 (Homo sapiens, UniProt Q8NFU7); assay type: cell-based; conditions: U2OS, dose > 33.0 µM
[4] = molecular target: T2, Methylcytosine dioxygenase TET3 (Homo sapiens, UniProt O43151); experiment: Inhibition of human TET3 catalytic domain (E824 to I1795 residues) expressed in mammalian cells using 5-methylcytosine as substrate preincubated for 10 mins followed by DNA-cofactor addition and measured after 10 mins by Alphascreen assay
Homo sapiens [5] = species: Homo sapiens; conditions: dose 100.0 µM, time 20.0 min
[6] = molecular target: T2, Methylcytosine dioxygenase TET3; experiment: Inhibition of human TET3 catalytic domain (E824 to I1795 residues) expressed in mammalian cells using 5-methylcytosine as substrate at 100 uM preincubated for 10 mins followed by DNA-cofactor addition and measured after 10 mins by Alphascreen assay relative to control; conditions: time 20.0 min
[7] = molecular target: T1, Methylcytosine dioxygenase TET1; experiment: Inhibition of N-terminal 3xFlag-tagged human TET1 catalytic domain (E1418 to V2136 residues) expressed in Sf9 cells using 5-methylcytosine as substrate at 100 uM preincubated for 10 mins followed by DNA-cofactor addition and measured after 30 mins by Alphascreen assay relative to control; conditions: time 40.0 min
[8] = molecular target: T1, Methylcytosine dioxygenase TET1; experiment: Inhibition of N-terminal 3xFlag-tagged human TET1 catalytic domain (E1418 to V2136 residues) expressed in Sf9 cells using 5-methylcytosine as substrate preincubated for 10 mins followed by DNA-cofactor addition and measured after 30 mins by Alphascreen assay
[9] = molecular target: T1, Methylcytosine dioxygenase TET1; assay type: cell-based; conditions: U2OS, dose 1.0 mM
Homo sapiens [10] = species: Homo sapiens; experiment: (§1) Inhibition of N-terminal His-tagged recombinant human TET2 catalytic domain LCIdel mutant (D1129 to G1936 residues with Y1481 to N1843 replaced by a 3 x GGGGS linker) expressed in Escherichia coli BL21 (DE3) using 5-methylcytosine as substrate at 100 uM preincubated for 10 mins followed by DNA-cofactor addition and measured after 10 mins by Alphascreen assay relative to control; conditions: time 20.0 min
[11] = molecular target: T1, Methylcytosine dioxygenase TET1; assay type: cell-based; conditions: U2OS, dose 3.0 mM
Homo sapiens [12] = species: Homo sapiens; experiment: as §1, with “Competitive inhibition” for “Inhibition”, “substrate” for “substrate at 100 uM”, “addition in presence of 2-OG” for “addition”, “assay” for “assay relative to control”; conditions: time 20.0 min
[13] = molecular target: T3, Methylcytosine dioxygenase TET2 (Homo sapiens, UniProt Q6N021); conditions: sf9
[14] = molecular target: T3, Methylcytosine dioxygenase TET2; experiment: biochemical
[15] = molecular target: T1, Methylcytosine dioxygenase TET1

T1 sequence (Q8NFU7 whole entry, the tested form may be a part): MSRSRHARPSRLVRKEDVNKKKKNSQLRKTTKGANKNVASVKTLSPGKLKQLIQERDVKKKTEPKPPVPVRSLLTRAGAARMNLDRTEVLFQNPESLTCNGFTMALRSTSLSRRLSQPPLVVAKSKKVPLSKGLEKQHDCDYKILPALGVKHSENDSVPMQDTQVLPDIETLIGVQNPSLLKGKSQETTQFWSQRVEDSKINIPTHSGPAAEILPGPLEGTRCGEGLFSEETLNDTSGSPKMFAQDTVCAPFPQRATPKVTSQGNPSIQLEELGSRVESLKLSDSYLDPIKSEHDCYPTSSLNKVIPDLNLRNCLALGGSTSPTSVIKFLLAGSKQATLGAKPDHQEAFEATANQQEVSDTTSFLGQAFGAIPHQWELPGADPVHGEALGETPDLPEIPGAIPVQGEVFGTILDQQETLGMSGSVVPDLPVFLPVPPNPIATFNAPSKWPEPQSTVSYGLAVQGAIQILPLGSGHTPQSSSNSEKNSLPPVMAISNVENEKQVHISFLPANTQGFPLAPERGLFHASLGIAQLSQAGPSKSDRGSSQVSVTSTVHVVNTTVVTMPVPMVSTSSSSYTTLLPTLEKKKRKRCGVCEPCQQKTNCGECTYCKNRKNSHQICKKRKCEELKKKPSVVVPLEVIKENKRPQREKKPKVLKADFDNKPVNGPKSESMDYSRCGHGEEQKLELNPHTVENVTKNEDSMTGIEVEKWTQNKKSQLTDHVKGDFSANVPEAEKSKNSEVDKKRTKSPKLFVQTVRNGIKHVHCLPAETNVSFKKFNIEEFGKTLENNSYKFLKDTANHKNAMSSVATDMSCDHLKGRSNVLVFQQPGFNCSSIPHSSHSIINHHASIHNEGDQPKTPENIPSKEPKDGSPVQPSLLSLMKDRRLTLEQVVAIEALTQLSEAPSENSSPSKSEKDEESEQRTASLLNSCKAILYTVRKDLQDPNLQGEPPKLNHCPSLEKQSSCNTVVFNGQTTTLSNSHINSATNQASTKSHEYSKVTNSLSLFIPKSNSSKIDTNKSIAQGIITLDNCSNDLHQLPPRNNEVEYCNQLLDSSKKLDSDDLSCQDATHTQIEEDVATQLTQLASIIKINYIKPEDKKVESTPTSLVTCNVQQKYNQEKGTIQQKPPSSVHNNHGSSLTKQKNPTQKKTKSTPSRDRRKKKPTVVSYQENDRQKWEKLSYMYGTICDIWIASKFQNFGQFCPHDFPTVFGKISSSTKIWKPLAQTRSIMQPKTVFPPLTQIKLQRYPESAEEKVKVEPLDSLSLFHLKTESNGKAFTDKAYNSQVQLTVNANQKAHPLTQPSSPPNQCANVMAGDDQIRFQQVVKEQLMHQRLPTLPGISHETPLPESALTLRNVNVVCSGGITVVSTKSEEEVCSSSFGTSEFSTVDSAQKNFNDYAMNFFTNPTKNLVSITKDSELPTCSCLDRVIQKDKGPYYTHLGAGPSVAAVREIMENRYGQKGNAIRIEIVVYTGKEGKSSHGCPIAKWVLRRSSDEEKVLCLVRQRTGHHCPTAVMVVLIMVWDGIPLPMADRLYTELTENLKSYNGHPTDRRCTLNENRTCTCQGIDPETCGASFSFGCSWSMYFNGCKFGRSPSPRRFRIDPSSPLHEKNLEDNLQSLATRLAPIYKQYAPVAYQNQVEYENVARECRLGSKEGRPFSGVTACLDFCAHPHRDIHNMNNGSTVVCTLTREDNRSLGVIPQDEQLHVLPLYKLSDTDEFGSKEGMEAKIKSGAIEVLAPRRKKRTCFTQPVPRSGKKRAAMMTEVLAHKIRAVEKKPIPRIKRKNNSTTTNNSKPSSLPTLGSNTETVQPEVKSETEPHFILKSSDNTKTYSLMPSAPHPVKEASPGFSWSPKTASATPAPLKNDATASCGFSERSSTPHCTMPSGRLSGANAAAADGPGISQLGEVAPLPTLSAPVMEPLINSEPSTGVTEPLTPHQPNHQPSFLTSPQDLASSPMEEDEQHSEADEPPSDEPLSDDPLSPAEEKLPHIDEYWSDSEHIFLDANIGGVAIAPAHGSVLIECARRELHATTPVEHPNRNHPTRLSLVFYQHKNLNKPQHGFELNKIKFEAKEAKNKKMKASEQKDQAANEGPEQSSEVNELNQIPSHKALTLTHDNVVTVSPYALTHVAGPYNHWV
T2 sequence (O43151 whole entry, the tested form may be a part): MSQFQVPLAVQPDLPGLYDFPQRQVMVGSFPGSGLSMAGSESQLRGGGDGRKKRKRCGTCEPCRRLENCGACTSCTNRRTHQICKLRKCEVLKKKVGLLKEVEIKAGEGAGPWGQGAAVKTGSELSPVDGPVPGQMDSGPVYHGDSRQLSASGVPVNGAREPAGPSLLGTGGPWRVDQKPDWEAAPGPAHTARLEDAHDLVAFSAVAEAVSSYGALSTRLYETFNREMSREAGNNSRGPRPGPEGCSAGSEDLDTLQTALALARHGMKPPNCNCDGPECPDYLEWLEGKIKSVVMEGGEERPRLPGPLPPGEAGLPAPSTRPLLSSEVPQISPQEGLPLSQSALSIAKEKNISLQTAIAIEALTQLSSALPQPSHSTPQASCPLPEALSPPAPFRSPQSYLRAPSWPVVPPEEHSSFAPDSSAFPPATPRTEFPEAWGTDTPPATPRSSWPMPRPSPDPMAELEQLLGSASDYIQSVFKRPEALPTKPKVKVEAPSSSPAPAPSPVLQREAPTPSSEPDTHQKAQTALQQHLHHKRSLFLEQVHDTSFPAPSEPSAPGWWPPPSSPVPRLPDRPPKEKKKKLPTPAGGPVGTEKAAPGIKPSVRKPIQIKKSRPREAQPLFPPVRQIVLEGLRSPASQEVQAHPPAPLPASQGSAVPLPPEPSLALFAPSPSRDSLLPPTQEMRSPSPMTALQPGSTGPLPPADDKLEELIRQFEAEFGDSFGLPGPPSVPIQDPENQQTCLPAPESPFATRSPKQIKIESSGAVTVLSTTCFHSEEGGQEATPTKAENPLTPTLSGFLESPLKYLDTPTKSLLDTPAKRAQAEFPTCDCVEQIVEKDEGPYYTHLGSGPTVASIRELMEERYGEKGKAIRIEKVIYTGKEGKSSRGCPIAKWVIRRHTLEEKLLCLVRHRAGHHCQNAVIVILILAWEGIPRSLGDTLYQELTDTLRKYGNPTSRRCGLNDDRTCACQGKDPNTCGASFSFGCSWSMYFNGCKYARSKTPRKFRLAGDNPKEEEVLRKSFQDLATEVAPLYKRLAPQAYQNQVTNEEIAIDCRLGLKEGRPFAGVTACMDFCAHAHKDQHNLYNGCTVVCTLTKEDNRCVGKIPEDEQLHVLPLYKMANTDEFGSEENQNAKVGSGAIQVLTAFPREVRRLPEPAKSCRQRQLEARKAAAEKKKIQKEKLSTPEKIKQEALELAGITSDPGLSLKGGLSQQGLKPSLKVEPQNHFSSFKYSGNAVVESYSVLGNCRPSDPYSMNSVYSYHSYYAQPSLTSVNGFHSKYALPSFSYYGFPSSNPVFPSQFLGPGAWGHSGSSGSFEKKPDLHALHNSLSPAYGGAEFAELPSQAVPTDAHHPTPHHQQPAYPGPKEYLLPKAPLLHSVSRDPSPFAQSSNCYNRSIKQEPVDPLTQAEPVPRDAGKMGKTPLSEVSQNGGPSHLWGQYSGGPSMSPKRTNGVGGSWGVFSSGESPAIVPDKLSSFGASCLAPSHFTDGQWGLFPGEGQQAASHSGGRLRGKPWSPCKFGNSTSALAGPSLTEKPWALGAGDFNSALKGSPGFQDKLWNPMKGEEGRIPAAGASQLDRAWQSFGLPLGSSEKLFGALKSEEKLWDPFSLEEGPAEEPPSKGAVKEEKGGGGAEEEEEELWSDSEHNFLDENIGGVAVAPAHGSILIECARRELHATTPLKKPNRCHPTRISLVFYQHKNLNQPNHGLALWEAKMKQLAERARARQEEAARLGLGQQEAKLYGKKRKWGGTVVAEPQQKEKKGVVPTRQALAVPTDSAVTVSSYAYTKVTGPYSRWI

## CCCCCCCCOC(=O)[C@H](O)CCC(=O)O
U2OS [1]
  pCC50: < 2.7

## Cc1[nH]c2ccccc2c1CCNCc1ccc(/C=C/C(=O)NO)cc1 [PANOBINOSTAT]
U2OS [2]
  Activity: Dose-Dependent Effect
[3]
  inhibition: Active

## CCN(CCN(C)C)C(=O)CNCc1cc(C(N)=O)ccn1
[4]; read-out: IC50
  IC50: > 100 µM
Homo sapiens [5]
  inhibition: < 20%
[6]
  inhibition: < 20%
[7]
  inhibition: < 20%
[8]; read-out: IC50
  IC50: > 100 µM

## COC(=O)c1ccnc(C(=O)OC)c1
[9]
  inhibition: inactive

## Nc1nc(=O)n([C@H]2C[C@H](O)[C@@H](CO)O2)cc1CO
Homo sapiens [5]
  inhibition: < 20%

## O=C(O)CCNc1cc(N2CCc3ccccc3CC2)nc(-c2ccccn2)n1
Homo sapiens [10]
  inhibition: < 20%
[8]; read-out: IC50
  IC50: > 100 µM

## Cc1cn([C@H]2C[C@H](O)[C@@H](CO)O2)c(=O)nc1N
Homo sapiens [5]
  inhibition: < 20%

## CCCCCCCCOC(=O)[C@@H](O)CCC(=O)O
[11]
  inhibition: inactive
U2OS [1]
  pCC50: < 2.7

## O=C(O)CNC(=O)c1nc(Cl)c2ccccc2c1O
[4]; read-out: IC50
  IC50: ≥ 100 µM
[4]; read-out: pIC50 (converted)
  IC50: ≥ 100 µM
[8]; read-out: pIC50 (converted)
  IC50: ≥ 100 µM
[8]; sf9, read-out: IC50
  IC50: ≥ 100 µM

## O=C(O)CNC(=O)c1c(O)c2ccccc2n(Cc2ccccc2)c1=O
[4]; read-out: IC50
  IC50: ≥ 100 µM
[4]; read-out: pIC50 (converted)
  IC50: ≥ 100 µM
[6]
  inhibition: < 20%
[8]; read-out: pIC50 (converted)
  IC50: ≥ 100 µM
[8]; sf9, read-out: IC50
  IC50: ≥ 100 µM

## COC(=O)CCC(=O)C(=O)OC
U2OS [1]
  pCC50: < 2

## CC(C)c1c(-c2ccccc2)[nH]c2c(C#N)cnn2c1=O
[4]; read-out: IC50
  IC50: > 100 µM
Homo sapiens [5]
  inhibition: < 20%
[6]
  inhibition: < 20%
Homo sapiens [10]
  inhibition: < 20%
[7]
  inhibition: < 20%
[8]; read-out: IC50
  IC50: > 100 µM

## Cc1nc(C(=O)NCC(=O)O)c(O)c2ccc(Oc3ccccc3)cc12 [ROXADUSTAT]
[4]; read-out: IC50
  IC50: ≥ 100 µM
[4]; read-out: pIC50 (converted)
  IC50: ≥ 100 µM
Homo sapiens [10]
  inhibition: < 20%
[8]; read-out: pIC50 (converted)
  IC50: ≥ 100 µM
[8]; sf9, read-out: IC50
  IC50: ≥ 100 µM

## CN(c1ccccc1)c1ccc2c(c1)CCC[C@H]2CNc1cnccc1C(=O)O
[4]; read-out: IC50
  IC50: > 100 µM
[8]; read-out: IC50
  IC50: > 100 µM

## O=C(O)c1ccc(O)c2ncccc12
Homo sapiens [12]
  inhibition: Active

## O=C(O)CNC(=O)c1c(O)n(C2CCCCC2)c(=O)n(C2CCCCC2)c1=O
[4]; read-out: IC50
  IC50: ≥ 100 µM
[4]; read-out: pIC50 (converted)
  IC50: ≥ 100 µM
[13]
  IC50: ≥ 100 µM
[6]
  inhibition: 36%
[7]
  inhibition: 63%
[8]; read-out: pIC50 (converted)
  IC50: ≥ 100 µM
[8]; sf9, read-out: IC50
  IC50: ≥ 100 µM
[14]
  IC50: ≥ 100 µM

## O=c1c(-n2ccnn2)c[nH]n1-c1cc(N2CCOCC2)ncn1 [MOLIDUSTAT]
[15]
  EC50: ~100 µM
